These results are taken from patent US8680272B2, “3-arylethynyl substituted quinazolinone compounds” (Council of Scientific & Industrial Research, priority 2011, dated 2014).

For assay [1], the system named is six leukemia cancer cell lines (CCRF-CEM, HL-60, K-562, MOLT-4, SR and RPMI-8226). The assay is described as follows: Anticancer activity, SRB assay, leukemia panel. In kind it is cell-based, human. Particulars: for GI50: Homo sapiens, six leukemia cancer cell lines, exposure period of at least 48 h, read-out: GI50 (range over the panel); for mean graph midpoint values (MG_MID) of log10 TGI (Log10TGI50) / mean graph midpoint values (MG_MID) of Log10LC50 / mean graph midpoint values (MG_MID) of Log10GI50: Leukemia; for mean graph midpoint values (MG_MID) of log10 TGI (Log10TGI50): log value of concentration of the compound resulting in total inhibition of net cell growth; for mean graph midpoint values (MG_MID) of Log10LC50: log value of the concentration of compounds leading to 50% net cell death; for mean graph midpoint values (MG_MID) of Log10GI50: log values of concentration in mol/L causing 50% inhibition of net cell growth. The protocol: (§1) Some of biological activity studies were carried out at the National Cancer Institute (NCI), Maryland, USA.
(§2) The compounds were evaluated for anticancer activity against sixty human cancer cells derived from nine cancer types (leukemia cell line, non-small-cell lung cell line, colon cell line, CNS cell line, melanoma cell line, ovarian cell line, prostate cell line, renal cell line and breast cancer cell line) as shown in Table 1. For each compound, dose response curves for each cell line were measured at a minimum of five concentrations at 10 fold dilutions. A protocol of 48 h continuous drug exposure was used and a sulforhodamine B (SRB) protein assay was used to estimate cell viability or growth.

The test system of assay [2] is RXF 393. The assay is described as follows: Anticancer activity, SRB assay, renal cell line RXF 393. The settings on record: Renal RXF 393; 48 h continuous drug exposure; —^b means GI50 values not attained at the concentrations used. The assay is classed as cell-based, human. The protocol: as §1, §2
For orientation: In SRB staining, fixed cells bind dye roughly in proportion to their protein.

Assay [3] has as its system OVCAR-3. Description: Anticancer activity, SRB assay, ovarian cell line OVCAR-3. In kind it is cell-based. The settings on record: Homo sapiens; Ovarian OVCAR-3; 48 h continuous drug exposure; read-out: Growth Inhibition GI50. The protocol: as §1, §2
The subject of assay [4] is NCI/ADR-RES. Description: Anticancer activity, SRB assay, ovarian cell line NCI/ADR-RES. Particulars: Ovarian NCl/ADR-RES, 48 h continuous drug exposure, —^b means GI50 values not attained at the concentrations used; for GI50: Homo sapiens, NCI/ADR-RES, read-out: Growth Inhibition GI50. The assay is classed as cell-based, human. The protocol:
as §1, §2

For assay [5], the system named is SK-MEL-5. Description: Anticancer activity, SRB assay, melanoma cell line SK-MEL-5. The settings on record: Homo sapiens; Melanoma SK-MEL-5; 48 h continuous drug exposure; read-out: Growth Inhibition GI50. In kind it is cell-based. The protocol: as §1, §2
Assay [6] concerns two prostate cancer cell line (PC-3, DU-145). Description: Anticancer activity, SRB assay, prostate panel. The assay is classed as cell-based, human. The settings on record: for mean graph midpoint values (MG_MID) of log10 TGI (Log10TGI50) / mean graph midpoint values (MG_MID) of Log10LC50 / mean graph midpoint values (MG_MID) of Log10GI50: Prostate; for mean graph midpoint values (MG_MID) of log10 TGI (Log10TGI50): log value of concentration of the compound resulting in total inhibition of net cell growth; for mean graph midpoint values (MG_MID) of Log10LC50: log value of the concentration of compounds leading to 50% net cell death; for mean graph midpoint values (MG_MID) of Log10GI50: log values of concentration in mol/L causing 50% inhibition of net cell growth; for GI50: Homo sapiens, DU-145, two prostate cancer cell line, exposure period of at least 48 h, read-out: GI50 (range over the panel). Here is the method:
as §1, §2

Assay [7] deals with HS 578T. The assay is described as follows: Anticancer activity, SRB assay, breast cell line HS 578T. In kind it is cell-based, human. The settings on record: Breast HS 578T, 48 h continuous drug exposure, —^b means GI50 values not attained at the concentrations used; for GI50: Homo sapiens, read-out: Growth Inhibition GI50. Here is the method:
as §1, §2

The test system of assay [8] is CAKI-1. The assay is described as follows: Anticancer activity, SRB assay, renal cell line CAKI-1. The assay is classed as cell-based. Particulars: Homo sapiens; Renal CAKI-1; 48 h continuous drug exposure; read-out: Growth Inhibition GI50. The protocol:
as §1, §2

In assay [9] the test system is MOLT-4. Description: Anticancer activity, SRB assay, leukemia cell line MOLT-4. The assay is classed as cell-based. The settings on record: Homo sapiens; Leukemia MOLT-4; 48 h continuous drug exposure; read-out: Growth Inhibition GI50. The protocol: as §1, §2
In assay [10] the test system is HCT-15. The assay is described as follows: Anticancer activity, SRB assay, colon cell line HCT-15. In kind it is cell-based. The settings on record: Homo sapiens; Colon HCT-15; 48 h continuous drug exposure; read-out: Growth Inhibition GI50. Here is the method:
as §1, §2

Assay [11] has as its system HOP-92. Description: Anticancer activity, SRB assay, non-small lung cell line HOP-92. Particulars: Non-small lung HOP-92, 48 h continuous drug exposure, —^b means GI50 values not attained at the concentrations used; for GI50: Homo sapiens, read-out: Growth Inhibition GI50. The assay is classed as cell-based, human. The protocol: as §1, §2
Assay [12] has as its system six CNS cancer cell line (SF-268, SF-295, SF-539, SNB-19, SNB-75 and U251). Description: Anticancer activity, SRB assay, CNS panel. In kind it is cell-based, human. Particulars: for mean graph midpoint values (MG_MID) of log10 TGI (Log10TGI50) / mean graph midpoint values (MG_MID) of Log10LC50 / mean graph midpoint values (MG_MID) of Log10GI50: CNS; for mean graph midpoint values (MG_MID) of log10 TGI (Log10TGI50): log value of concentration of the compound resulting in total inhibition of net cell growth; for mean graph midpoint values (MG_MID) of Log10LC50: log value of the concentration of compounds leading to 50% net cell death; for mean graph midpoint values (MG_MID) of Log10GI50: log values of concentration in mol/L causing 50% inhibition of net cell growth; for GI50: Homo sapiens, six CNS cancer cell line, exposure period of at least 48 h, read-out: GI50 (range over the panel). Here is the method: as §1, §2

Assay [13] concerns TK-10. Description: Anticancer activity, SRB assay, renal cell line TK-10. The assay is classed as cell-based, human. Particulars: Renal TK-10, 48 h continuous drug exposure, —^b means GI50 values not attained at the concentrations used; for GI50: Homo sapiens, read-out: Growth Inhibition GI50. Here is the method: as §1, §2
The subject of assay [14] is PC-3. The assay is described as follows: Anticancer activity, SRB assay, prostate cell line PC-3. In kind it is cell-based, human. The settings on record: Prostate PC-3, 48 h continuous drug exposure, —^b means GI50 values not attained at the concentrations used; for GI50: Homo sapiens, read-out: Growth Inhibition GI50. Here is the method:
as §1, §2

In assay [15] the test system is NCI-H522. The assay is described as follows: Anticancer activity, SRB assay, non-small lung cell line NCI-H522. In kind it is cell-based, human. The settings on record: Non-small lung NCl-H522, 48 h continuous drug exposure, —^b means GI50 values not attained at the concentrations used; for GI50: Homo sapiens, NCI-H522, read-out: Growth Inhibition GI50. Here is the method:
as §1, §2

Assay [16] concerns SK-OV-3. The assay is described as follows: Anticancer activity, SRB assay, ovarian cell line SK-OV-3. In kind it is cell-based, human. Particulars: Ovarian SK-OV-3, 48 h continuous drug exposure, —^b means GI50 values not attained at the concentrations used; for GI50: Homo sapiens, read-out: Growth Inhibition GI50. Here is the method: as §1, §2

Structures are written as SMILES.

One may read the GI50 as the concentration giving 50% growth inhibition. As for `COc1ccc2cc(C#Cc3ccc(-n4c(/C=C/c5cc(OC)c(OC)c(OC)c5)nc5ccccc5c4=O)c(C)c3)ccc2c1` [Compound 6l, (E)-3-(4-((6-Methoxynaphthalen-2-yl)ethynyl)-2-methylphenyl)-2-(3,4,5-trimethoxystyryl)quinazolin-4(3H)-one], the GI50 in [1] was 395 to 4660 nM; in assay [3], 19300 nM; in assay [5] it was 1850 nM; in assay [8], 4910 nM; in [9], 4660 nM; in assay [10] it was 1220 nM. Besides, the GI50 in assay [12] worked out at 7400 nM. The “mean graph midpoint values (MG_MID) of log10 TGI (Log10TGI50)” value (from here on “mean graph midpoint values … (Log10TGI50)”) in assay [1], in assay [6] and in assay [12] was above −4.00 in each case. Also, the “mean graph midpoint values (MG_MID) of Log10LC50” value in assay [1], in [6] and in [12] was above −4.00 in each case. For the same compound, the “mean graph midpoint values (MG_MID) of Log10GI50” value is on record as −5.67 mol/L in assay [1], −4.00 mol/L in assay [6] and −4.18 mol/L in [12]. Also, the “Growth Inhibition GI50” value in assay [2], in assay [4], in assay [7], in [11], in [13] and in [14] was “—^b” throughout. The “Growth Inhibition GI50” value in [15] and in [16] was “—^b” in each case.
Regarding `Cc1cc(C#Cc2ccccc2)ccc1-n1c(/C=C/c2ccc(O)cc2)nc2ccccc2c1=O` [Compound 4b, (E)-2-(4-Hydroxystyryl)-3-(2-methyl-4-(phenylethynyl)phenyl)quinazolin-4(3H)-one], the GI50 is 1660 to 3260 nM in assay [1]; 3600 nM in assay [3]; 3090 nM in [4]; 1770 nM in assay [5]; 3240 to 4870 nM in assay [6]; 2480 nM in assay [7]. Moreover, the GI50 was 3300 nM in assay [8]; 2360 nM in [9]; 2500 nM in [10]; 2500 nM in assay [11]; 2850 to 6910 nM in assay [12]; 2620 nM in assay [13]. For the same compound, the GI50 in assay [14] amounted to 3240 nM; in assay [15] it was 2260 nM; in assay [16] it was 9910 nM. For the same compound, the results for the “mean graph midpoint values … (Log10TGI50)” value in [1], in assay [6] and in assay [12] were −4.49, above −4.00 and −4.21, respectively. Further, the “mean graph midpoint values (MG_MID) of Log10LC50” value in assay [1], in [6] and in [12] was above −4.00 throughout. The “mean graph midpoint values (MG_MID) of Log10GI50” value is given as −5.64 mol/L in assay [1], −5.40 mol/L in [6] and −5.35 mol/L in assay [12].
Consider `Cc1cc(C#Cc2ccccc2)ccc1-n1c(/C=C/c2cc(O)ccc2O)nc2ccccc2c1=O` [Compound 4c, (E)-2-(2,5-Dihydroxystyryl)-3-(2-methyl-4-(phenylethynyl)phenyl)quinazolin-4(3H)-one], for which the GI50 in [1] was 634 to 1540 nM; in [3], 1490 nM; in assay [4] it was 2060 nM; in assay [5], 1350 nM; in [6] it was 419 to 2190 nM; in assay [7], 1540 nM. Also, the GI50 in assay [8] is 2150 nM; in assay [9] it was 1140 nM; in assay [10], 1030 nM; in [11], 1540 nM; in assay [12], 1300 to 1620 nM; in [13], 2030 nM. Also, the GI50 turned out to be 2190 nM in assay [14], 1290 nM in assay [15] and 1830 nM in assay [16]. Further, the figures for the “mean graph midpoint values … (Log10TGI50)” value in assay [1], in [6] and in assay [12] were −5.38, −5.43 and −5.50, respectively. The “mean graph midpoint values (MG_MID) of Log10LC50” value in assay [1] is given as −4.40; in [6], −4.68; in assay [12], −5.15. In addition, the “mean graph midpoint values (MG_MID) of Log10GI50” value in assay [1] is −5.94 mol/L; in assay [6], −6.17 mol/L; in [12] it was −5.85 mol/L.
